Results as given in PubChem BioAssay AID624405 (Broad Institute, 2012).
Records with an inconclusive call do not appear.

Test system: C2C12 myotubes + simvastatin, ATP luminescence, 48 h
Assay: rescue of simvastatin-induced ATP loss – cell-based, C2C12 myotubes, ATP luminescence, cherry pick, dose response (AID 624405);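 also: myotubes are challenged with simvastatin at 10 µM to lower ATP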

## Cc1ccc(C2CC2c2n[nH]c(=S)n2-c2ccc(C)cc2)cc1 (stereo unspecified)
  AC40: 6.33 µM

## c1coc(-c2nc3ccccc3s2)c1
  AC40: 18 µM

## CC(C)CC#Cc1cnc2c(c1)C(=O)N([C@H](C)CO)C[C@H](C)[C@@H](CN(C)C(=O)Cc1ccccc1)O2
  AC40: 9.7 µM

## O=C(Nc1ccc2nc3n(c(=O)c2c1)CCCCC3)c1c(F)ccc([N+](=O)[O-])c1F
  AC40: 4.3 µM

## C[C@@H]1C[C@@H]([C@H](O)CC2CC(=O)NC(=O)C2)C(=O)[C@@H](C)C1
  AC40: < 0.16 µM

## Cc1cccn2c(=O)c(C=O)c(N3CCCCCC3)nc12
  AC40: 15.1 µM

## C[C@H]1CN([C@@H](C)CO)C(=O)c2cc(NC(=O)Nc3cccc4ccccc34)ccc2O[C@@H]1CN(C)Cc1ccc(C(=O)Nc2ccccc2N)cc1
  AC40: 17.7 µM

## C[C@H]1CN([C@@H](C)CO)C(=O)Cc2cc(NC(=O)CCCCCC(=O)Nc3ccccc3N)ccc2O[C@H]1CN(C)Cc1ccc(Cl)c(Cl)c1
  AC40: 12.6 µM

## C[C@H]1CN([C@@H](C)CO)C(=O)c2cccc(NC(=O)Nc3ccc(C(F)(F)F)cc3)c2O[C@H]1CN(C)CC1CCCCC1
  AC40: 19.1 µM

## O=C(NCc1ccco1)c1cc2sccc2n1Cc1ccccc1
  AC40: 0.839 µM

## Cc1ccc(S(=O)(=O)Nc2ccc3c(c2)CC(=O)N([C@@H](C)CO)C[C@H](C)[C@@H](CN(C)Cc2ccc(Cl)c(Cl)c2)O3)cc1
  AC40: 11.9 µM

## COc1ccc(C#Cc2cnc3c(c2)C(=O)N([C@H](C)CO)C[C@H](C)[C@@H](CN(C)C(=O)Nc2cccc(OC)c2)O3)cc1
  AC40: 1.38 µM

## CCCC(c1nnnn1Cc1ccc(OC)cc1)N1CCN(c2ccccc2)CC1 (stereo unspecified)
  AC40: 5.18 µM

## O=C(Nc1cccc(O)c1)c1cc(-c2cccs2)on1
  AC40: 5.99 µM

## CC(C)(C)c1ccc(Cn2nnc3c(=O)[nH]c(C4CCN(C(=O)Cc5cccs5)CC4)nc32)cc1
  AC40: 3.99 µM

## COc1ccc(CN(C)C[C@H]2Oc3ccc(NS(=O)(=O)c4ccc(Cl)cc4)cc3CC(=O)N([C@@H](C)CO)C[C@@H]2C)cc1
  AC40: 0.484 µM

## COc1ccc(N(Cc2cc3ccccc3[nH]c2=O)S(=O)(=O)c2ccccc2)cc1
  AC40: 5.81 µM

## C[C@@H]1CN([C@@H](C)CO)C(=O)c2cccc(NC(=O)Nc3ccc4c(c3)OCO4)c2O[C@H]1CN(C)Cc1ccc(C(=O)Nc2ccccc2N)cc1
  AC40: 9.42 µM

## C[C@H](CO)N1C[C@H](C)[C@@H](CN(C)Cc2ccc(C(=O)Nc3ccccc3N)cc2)Oc2ccc(NC(=O)Nc3ccc4c(c3)OCO4)cc2CC1=O
  AC40: 11.7 µM

## Clc1ccc(Cn2ncc3c(N4CCCCC4)ncnc32)cc1
  AC40: 15.8 µM

## C[C@H](CO)N1C[C@H](C)[C@H](CN(C)Cc2ccc(C(=O)Nc3ccccc3N)cc2)Oc2ccc(NC(=O)Nc3cccc4ccccc34)cc2C1=O
  AC40: 8.83 µM

## COc1ccc(S(=O)(=O)N(C)C[C@@H]2Oc3ccc(NS(=O)(=O)c4ccc(Cl)cc4)cc3CC(=O)N([C@@H](C)CO)C[C@H]2C)cc1
  AC40: 11.8 µM

## CN(c1ccc(Cl)cc1)c1cc(=O)n(C)c2ccccc12
  AC40: < 0.16 µM

## C[C@@H]1CN([C@@H](C)CO)C(=O)Cc2cc(NC(=O)CCCCCC(=O)Nc3ccccc3N)ccc2O[C@H]1CN(C)Cc1ccccc1
  AC40: 12.2 µM

## CCn1c(CNc2ccc(F)cc2)nnc1SCC(=O)Nc1ccc(OC)cc1
  AC40: 5.81 µM

## CCOC(=O)N1CCN(C(=O)C(c2ccccc2)c2ccccc2)CC1
  AC40: 5.75 µM

## O=C(CNc1cccc(F)c1)N1CCc2ccccc2C1
  AC40: 3.26 µM

## CC1CCN(c2nc3c(c(=O)[nH]c(=O)n3C)n2CCCc2ccccc2)CC1
  AC40: 4.71 µM

## C[C@@H]1CN([C@H](C)CO)C(=O)Cc2cc(NC(=O)CCCCCC(=O)Nc3ccccc3N)ccc2O[C@H]1CN(C)Cc1ccc(-c2ccccc2)cc1
  AC40: 6.3 µM

## CC(=O)c1c(C(C)=O)c(C)n(Cc2ccc(Cl)cc2)c1C
  AC40: 16.9 µM

## O=c1[nH]ncc2c3ccccc3n(Cc3ccccc3)c12
  AC40: 5.26 µM

## COc1cc(OC)cc(-c2nnc(SCC(=O)N3CCCc4ccccc43)o2)c1
  AC40: 16.8 µM

## OC(c1cccc(OCc2ccccc2)c1)c1nnc(-c2ccccc2)o1 (stereo unspecified)
  AC40: 5.24 µM

## Cc1noc2ncnc(Sc3ccc(Cl)cc3)c12
  AC40: 3.11 µM

## C[C@H](CO)N1C[C@H](C)[C@H](CN(C)Cc2ccc(C(=O)Nc3ccccc3N)cc2)Oc2ccc(NC(=O)Cc3cn(C)c4ccccc34)cc2C1=O
  AC40: 6.08 µM

## C/C=C/Cn1c(SCc2ccccc2)nc2c1c(=O)[nH]c(=O)n2C
  AC40: 0.556 µM

## C[C@H](CO)N1C[C@H](C)[C@@H](CN(C)Cc2ccc(Cl)c(Cl)c2)Oc2ccc(NS(=O)(=O)c3cn(C)cn3)cc2CC1=O
  AC40: 5.29 µM

## Oc1[nH]c2ccccc2c1C=Nc1ccc2c(c1)OCO2
  AC40: 1.99 µM

## C=CCn1c(=O)[nH]c(=O)c2c(N)c(C(=O)c3ccc(OC)cc3)sc21
  AC40: 14.5 µM

## COc1ccccc1NS(=O)(=O)c1cccc(NC(=O)c2nc3nc(C)cc(C)n3n2)c1
  AC40: 8.63 µM

## CS(=O)(=O)N1CCN(C(=O)c2cc(-c3ccncc3)nc3ccc(Cl)cc23)CC1
  AC40: 11.4 µM

## CCOC(=O)Cc1csc(NC(=O)CC(C)(C)C)n1
  AC40: 2.56 µM

## C[C@@H]1CN([C@H](C)CO)C(=O)Cc2cc(NC(=O)CCCCCC(=O)Nc3ccccc3N)ccc2O[C@@H]1CN(C)Cc1ccccc1
  AC40: 14.4 µM

## Cc1cccc(S(=O)(=O)N2CCCCN3[C@H](CO)[C@@H](c4ccc(C#C[C@H](C)O)cc4)[C@@H]3C2)c1
  AC40: 17.3 µM

## C=CCn1c(=O)c2c(nc3n2CC(C)CN3c2cccc(OC)c2)n(C)c1=O (stereo unspecified)
  AC40: 10.5 µM

## COc1cc(CNc2ncnc3c2ncn3[C@H]2CN(Cc3cccc4ccccc34)C[C@@H](CO)O2)cc(OC)c1OC
  AC40: 1.36 µM

## C[C@H](CO)N1C[C@H](C)[C@@H](CN(C)Cc2ccc(Cl)c(Cl)c2)Oc2ccc(NS(=O)(=O)c3ccc(F)cc3)cc2CC1=O
  AC40: 19 µM

## CCc1ccc(CNCc2cccnc2)cc1
  AC40: 17.7 µM

## Cc1[nH]nc2c1C1(C(=O)N(Cc3ccc(Cl)cc3)c3ccccc31)C(C#N)=C(N)O2 (stereo unspecified)
  AC40: 4.72 µM

## COc1ccc(C(=O)Nc2ccccc2N2CCOCC2)cc1Br
  AC40: 12.1 µM

## CCC(c1nnnn1C1CCCC1)N1CCN(c2ccccc2F)CC1 (stereo unspecified)
  AC40: 4.11 µM

## CCC(C(=O)N(C(C)C)C(C)C)c1ccccc1 (stereo unspecified)
  AC40: 18.8 µM

## O=C(OCc1nc2ccccc2s1)c1cnccn1
  AC40: 9.58 µM

## O=C(NCc1ccco1)C1CCN(C(=O)c2cc3sccc3n2Cc2ccc(F)cc2)CC1
  AC40: 12.1 µM

## N#Cc1nc(-c2ccco2)oc1N1CCCC1
  AC40: 0.199 µM

## C[C@H]1CN([C@@H](C)CO)C(=O)Cc2cc(NC(=O)CCCCCC(=O)Nc3ccccc3N)ccc2O[C@H]1CN(C)Cc1ccc(C(F)(F)F)cc1
  AC40: 4.15 µM

## COc1ccc(S(=O)(=O)Nc2cccc3c2O[C@H](CN(C)C(=O)Nc2ccc(F)cc2)[C@H](C)CN([C@@H](C)CO)C3=O)cc1
  AC40: 6.89 µM

## Cc1csc(NC(=O)CSc2nc3[nH]c(=O)cc(O)c3s2)n1
  AC40: 4.2 µM

## C[C@H](CO)N1C[C@H](C)[C@H](CN(C)Cc2ccc(Cl)c(Cl)c2)Oc2ccc(NC(=O)CCCCCC(=O)Nc3ccccc3N)cc2CC1=O
  AC40: 13.4 µM

## Cc1nc(-c2cccc(S(=O)(=O)N3CC(C)OC(C)C3)c2)cs1 (stereo unspecified)
  AC40: 18.3 µM

## O=S(=O)(c1ccccc1)c1nc(-c2ccco2)oc1N1CCCCCC1
  AC40: 6.08 µM

## COc1ccc2c(Cl)c(-c3nnc(SCC(=O)c4ccccc4)n3C)sc2c1
  AC40: 1.13 µM

## C[C@@H]1CN([C@H](C)CO)C(=O)c2cccc(NC(=O)Nc3ccccc3)c2O[C@H]1CN(C)Cc1ccc(C(=O)Nc2ccccc2N)cc1
  AC40: 11 µM

## C[C@@H]1CN([C@H](C)CO)C(=O)Cc2cc(NC(=O)CCCCCC(=O)Nc3ccccc3N)ccc2O[C@@H]1CN(C)Cc1ccc(Cl)c(Cl)c1
  AC40: 9.57 µM

## CC1CCN(S(=O)(=O)c2ccc(NC(=O)C3CCN(C(=O)c4ccco4)CC3)cc2)CC1
  AC40: 6.94 µM

## N#C[C@@H]1[C@@H](c2ccccc2)[C@H](CO)N1S(=O)(=O)c1ccc(-c2ccccc2)cc1
  AC40: 8.78 µM

## Cc1noc(C)c1S(=O)(=O)Nc1ccc2c(c1)CC(=O)N([C@H](C)CO)C[C@@H](C)[C@H](CN(C)Cc1ccc(-c3ccccc3)cc1)O2
  AC40: 20.3 µM

## COc1ccc(S(=O)(=O)N2CCCCC2)cc1C(C)C
  AC40: 8.77 µM

## CCS(=O)(=O)c1ncc(Cl)c(C(=O)Nc2ccccc2OC)n1
  AC40: 2.12 µM

## Cc1cc(C)c(C)c(S(=O)(=O)NCC(=O)N2CCCC2)c1C
  AC40: 13.2 µM

## Cc1onc(-c2ccccc2Cl)c1C(=O)NCc1nc(-c2ccccc2)no1
  AC40: 8.26 µM

## COc1ccccc1-c1noc(-c2cccs2)n1
  AC40: 0.575 µM

## C[C@H]1CN([C@@H](C)CO)C(=O)Cc2cc(NC(=O)CCCCCC(=O)Nc3ccccc3N)ccc2O[C@H]1CN(C)Cc1ccc(Oc2ccccc2)cc1
  AC40: 3.86 µM

## Cc1cccc(-c2nnc3n2N=C(c2ccccc2Br)CS3)c1
  AC40: 0.28 µM

## C[C@H]1CN([C@@H](C)CO)C(=O)c2cc(NC(=O)Nc3cccc4ccccc34)ccc2O[C@H]1CN(C)Cc1ccc(C(=O)Nc2ccccc2N)cc1
  AC40: 5.45 µM

## C[C@H](CO)N1C[C@H](C)[C@H](CN(C)Cc2ccccc2)Oc2ccc(NC(=O)CCCCCC(=O)Nc3ccccc3N)cc2CC1=O
  AC40: 10.1 µM

## COc1ccc(S(=O)(=O)Nc2ccc3c(c2)CC(=O)N([C@H](C)CO)C[C@@H](C)[C@H](CN(C)CC2CCCCC2)O3)cc1
  AC40: 2.63 µM

## COc1ccc(S(=O)(=O)Nc2ccc3c(c2)OCCO3)cc1Cl
  AC40: 1.46 µM

## C[C@H]1CN([C@@H](C)CO)S(=O)(=O)c2ccc(C#CC3CC3)cc2O[C@H]1CN(C)C(=O)Nc1cc(F)ccc1F
  AC40: 3.66 µM

## CN1C(=O)c2ccc(N(C)C)cc2C1=O
  AC40: 9.68 µM

## NS(=O)(=O)OCC(Cc1ccccc1)N1C(=O)c2ccccc2C1=O (stereo unspecified)
  AC40: 14.6 µM

## Cc1cc(C(=O)COC(=O)C2=NNC(=O)CC2)c(C)n1-c1ccccc1
  AC40: 11.7 µM

## C[C@@H]1CN([C@H](C)CO)C(=O)c2cc(NC(=O)Nc3cccc4ccccc34)ccc2O[C@@H]1CN(C)Cc1ccc(C(=O)Nc2ccccc2N)cc1
  AC40: 6.44 µM

## O=C1C[C@@H]2c3c(cccc3CN1Cc1ccccc1F)C[C@@H](O)[C@H]2O
  AC40: 17.2 µM

## C[C@@H]1CN([C@H](C)CO)C(=O)Cc2cc(NC(=O)C3CCCCC3)ccc2O[C@H]1CN(C)Cc1ccc(Cl)c(Cl)c1
  AC40: 5.24 µM

## Cc1ccc(S(=O)(=O)N(C)C[C@@H]2Oc3ccc(NS(=O)(=O)c4ccc(Cl)cc4)cc3C(=O)N([C@H](C)CO)C[C@@H]2C)cc1
  AC40: 8.22 µM

## O=C(/C=C/Sc1ncn[nH]1)c1ccc(Cl)cc1
  AC40: 6.34 µM

## Cc1ccc(C)c(NC(=O)C2CC3c4ccccc4C2c2ccccc23)c1 (stereo unspecified)
  AC40: 3.1 µM

## Cc1c(NC(=O)CSc2ccccn2)c(=O)n(-c2ccccc2)n1C
  AC40: 10.7 µM

## CC(C)Nc1ncnc2c1cnn2Cc1ccc(Cl)cc1
  AC40: 0.544 µM

## Oc1ccc(-c2csc(Nc3ccc4c(c3)OCO4)n2)c(O)c1
  AC40: 10.5 µM
